The source made the active and inactive calls.
Key:
[1] = target: T1, Bcl-2-related protein A1 (Mus musculus, UniProt Q07440); assay: Bfl-1 inhibitors blocking BH3 peptide binding, confirmation, biochemical, TR-FRET, mouse Bfl-1 (AID 621);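 also: TR-FRET binding of GST-Bfl-1 to FITC-labelled Bid peptide via terbium antibody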
T1 sequence (Q07440 whole entry): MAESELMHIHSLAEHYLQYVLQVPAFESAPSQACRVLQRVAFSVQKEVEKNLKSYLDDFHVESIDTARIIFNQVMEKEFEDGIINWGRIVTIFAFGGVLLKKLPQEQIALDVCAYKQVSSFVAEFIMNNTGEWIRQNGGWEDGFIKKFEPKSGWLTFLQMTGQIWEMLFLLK

[2] = target: Glyceraldehyde-3-phosphate dehydrogenase (Homo sapiens, UniProt P04406)
[3] = target: T1, Bcl-2-related protein A1; assay: Bfl-1 binding inhibitors, SAR follow-up, biochemical, fluorescence polarization (AID 1070)
[4] = target: T2, Mucolipin-3 (Homo sapiens, UniProt Q8TDD5); assay: TRPML3 agonist potency, dose response, cell-based, calcium fluorescence (AID 2510); assay type: functional
T2 sequence (Q8TDD5 whole entry): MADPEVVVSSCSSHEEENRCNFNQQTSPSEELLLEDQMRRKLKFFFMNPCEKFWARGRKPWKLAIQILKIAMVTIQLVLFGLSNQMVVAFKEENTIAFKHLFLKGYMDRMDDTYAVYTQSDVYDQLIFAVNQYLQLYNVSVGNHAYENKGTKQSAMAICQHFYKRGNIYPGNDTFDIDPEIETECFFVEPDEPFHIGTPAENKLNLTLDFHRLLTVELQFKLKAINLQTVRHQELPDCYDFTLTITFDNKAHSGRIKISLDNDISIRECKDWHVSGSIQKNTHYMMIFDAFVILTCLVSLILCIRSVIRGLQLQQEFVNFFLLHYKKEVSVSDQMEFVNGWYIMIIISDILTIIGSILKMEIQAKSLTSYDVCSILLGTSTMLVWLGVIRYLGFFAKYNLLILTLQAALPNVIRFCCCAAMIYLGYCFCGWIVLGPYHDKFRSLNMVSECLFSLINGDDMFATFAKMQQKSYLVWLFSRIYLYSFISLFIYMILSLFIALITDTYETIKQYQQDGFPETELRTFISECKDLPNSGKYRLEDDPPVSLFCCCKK

[5] = target: T3, Ion channel NompC (Danio rerio, UniProt Q7T1G6); assay: Fluorescence counterscreen assay for TRPML3 agonists: dose response cell-based high-throughput screening assay to identify agonists of the transient receptor potential channel N1 (TRPN1). [Related pubchem assays: 1526, 1424, 1448 ]; assay type: functional
T3 sequence (Q7T1G6 whole entry): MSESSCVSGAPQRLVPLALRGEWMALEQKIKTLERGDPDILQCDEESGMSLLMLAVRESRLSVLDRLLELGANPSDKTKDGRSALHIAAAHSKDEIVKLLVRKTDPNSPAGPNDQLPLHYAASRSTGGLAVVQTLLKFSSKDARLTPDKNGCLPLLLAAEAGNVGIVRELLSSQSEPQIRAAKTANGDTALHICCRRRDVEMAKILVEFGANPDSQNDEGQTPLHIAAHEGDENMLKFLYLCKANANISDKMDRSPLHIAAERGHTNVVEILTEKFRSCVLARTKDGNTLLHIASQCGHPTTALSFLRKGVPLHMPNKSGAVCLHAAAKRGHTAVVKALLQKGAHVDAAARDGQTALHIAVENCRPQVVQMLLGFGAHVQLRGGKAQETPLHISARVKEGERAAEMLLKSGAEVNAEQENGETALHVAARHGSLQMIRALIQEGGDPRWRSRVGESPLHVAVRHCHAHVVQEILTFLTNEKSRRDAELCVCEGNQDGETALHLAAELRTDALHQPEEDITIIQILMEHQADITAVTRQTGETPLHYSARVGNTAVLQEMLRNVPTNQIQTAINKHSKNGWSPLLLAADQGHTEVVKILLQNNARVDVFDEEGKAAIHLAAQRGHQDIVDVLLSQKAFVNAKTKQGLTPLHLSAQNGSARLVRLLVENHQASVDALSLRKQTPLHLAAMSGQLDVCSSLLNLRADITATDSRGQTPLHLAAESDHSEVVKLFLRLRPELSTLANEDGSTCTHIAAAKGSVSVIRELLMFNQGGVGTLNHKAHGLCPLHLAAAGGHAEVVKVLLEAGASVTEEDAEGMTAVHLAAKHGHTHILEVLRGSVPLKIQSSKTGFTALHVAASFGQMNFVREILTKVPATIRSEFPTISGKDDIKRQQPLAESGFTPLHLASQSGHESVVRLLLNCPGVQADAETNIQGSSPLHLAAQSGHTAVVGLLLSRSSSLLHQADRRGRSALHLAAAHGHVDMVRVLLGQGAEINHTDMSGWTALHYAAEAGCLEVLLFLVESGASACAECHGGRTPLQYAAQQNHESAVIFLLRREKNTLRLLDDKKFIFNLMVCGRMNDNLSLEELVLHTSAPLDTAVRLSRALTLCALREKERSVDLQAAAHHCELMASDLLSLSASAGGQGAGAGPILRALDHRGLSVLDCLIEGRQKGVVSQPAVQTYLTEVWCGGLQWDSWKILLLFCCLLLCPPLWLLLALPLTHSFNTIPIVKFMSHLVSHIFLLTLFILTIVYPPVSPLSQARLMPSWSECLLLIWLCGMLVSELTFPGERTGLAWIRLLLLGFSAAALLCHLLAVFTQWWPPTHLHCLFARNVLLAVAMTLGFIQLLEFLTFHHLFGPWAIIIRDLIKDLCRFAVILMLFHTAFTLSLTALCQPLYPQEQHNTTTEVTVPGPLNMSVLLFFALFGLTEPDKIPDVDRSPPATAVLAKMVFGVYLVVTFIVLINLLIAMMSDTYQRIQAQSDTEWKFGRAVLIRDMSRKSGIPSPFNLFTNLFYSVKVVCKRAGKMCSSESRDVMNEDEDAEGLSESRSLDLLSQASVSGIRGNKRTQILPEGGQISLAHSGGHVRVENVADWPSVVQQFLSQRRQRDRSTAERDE

[6] = target: T3, Ion channel NompC; assay: Late stage counterscreen for the probe development effort to identify selective agonists of the Transient Receptor Potential Channels 3 (TRPML3): fluorescence-based cell-based dose response assay for TRPN1 agonists.; assay type: functional
[7] = target: T2, Mucolipin-3; assay: Dose response cell-based high-throughput screening assay for agonists of the transient receptor potential channel ML3 (TRPML3). [Related pubchem assays: 1526, 1424, 1448 ]; assay type: functional
[8] = target: T4, Dual specificity protein phosphatase 6 (Rattus norvegicus, UniProt Q64346); assay: MKP-3 phosphatase inhibitors, primary screen, biochemical, rat enzyme, in vitro (AID 425)
T4 sequence (Q64346 whole entry): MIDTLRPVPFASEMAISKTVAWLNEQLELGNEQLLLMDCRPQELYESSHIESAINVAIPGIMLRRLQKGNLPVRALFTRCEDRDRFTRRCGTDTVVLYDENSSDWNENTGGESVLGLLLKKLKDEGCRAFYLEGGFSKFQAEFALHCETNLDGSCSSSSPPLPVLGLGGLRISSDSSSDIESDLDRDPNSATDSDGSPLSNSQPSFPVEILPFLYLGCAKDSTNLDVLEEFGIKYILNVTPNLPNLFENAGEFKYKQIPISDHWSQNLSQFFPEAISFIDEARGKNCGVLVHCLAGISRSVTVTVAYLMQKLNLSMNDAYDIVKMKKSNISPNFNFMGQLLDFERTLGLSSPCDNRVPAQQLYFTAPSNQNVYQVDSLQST

[9] = target: T5, Heat shock factor protein 1 (Mus musculus, UniProt P38532); assay: HSF1 potentiators in luciferase reporter cells, confirmation, cell-based, NIH3T3, luminescence, dose retest (AID 435004); assay type: functional;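 also: stress induced by proteasome inhibitor MG132 added 30 min after compound; luciferase reporter driven by HSF1 response element in NIH3T3 cells; actives raise luminescence as potentiators of the MG132 stress response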
T5 sequence (P38532 whole entry): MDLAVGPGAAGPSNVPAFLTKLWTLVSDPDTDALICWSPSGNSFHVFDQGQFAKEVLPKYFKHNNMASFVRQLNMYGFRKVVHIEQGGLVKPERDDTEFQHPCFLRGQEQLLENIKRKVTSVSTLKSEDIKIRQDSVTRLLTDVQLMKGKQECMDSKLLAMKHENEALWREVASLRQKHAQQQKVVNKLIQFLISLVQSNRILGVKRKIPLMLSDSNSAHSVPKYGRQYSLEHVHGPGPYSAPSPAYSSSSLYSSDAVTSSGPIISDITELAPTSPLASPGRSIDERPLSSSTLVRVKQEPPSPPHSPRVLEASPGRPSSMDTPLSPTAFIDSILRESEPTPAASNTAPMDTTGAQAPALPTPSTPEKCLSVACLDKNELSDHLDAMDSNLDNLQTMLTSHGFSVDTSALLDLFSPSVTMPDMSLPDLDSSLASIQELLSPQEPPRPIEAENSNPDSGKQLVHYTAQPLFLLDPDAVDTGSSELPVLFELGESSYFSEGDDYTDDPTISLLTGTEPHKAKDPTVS

[10] = Luminescence Cell-Based Dose Confirmation HTS to Identify Inhibitors of Polyadenylation.; assay type: functional
[11] = (§1) Counterscreen for antagonists of the orexin 1 receptor (OX1R; HCRTR1): Fluorescence-based cell-based high throughput dose response assay to identify antagonists of the parental CHO cell line. [Related pubchem assays (depositor defined):AID434989, AID435008, AID463079, AID485270, AID492963, AID492964, AID492965, AID493232, AID504699, AID504701]; assay type: functional
[12] = M. tuberculosis growth inhibition, HTS (AID 449762); assay type: functional
[13] = system: CHO-K1; assay: as §1, with “Homogeneous time resolved fluorescence (HTRF)-based” for “Fluorescence-based”, “cell-based” for “cell-based high throughput”, “CHO-K1” for “CHO”; assay type: functional; details: Cricetulus griseus;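 also: potency for inhibition of ATP-stimulated IP1 production as antagonists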
[14] = target: T6, Orexin/Hypocretin receptor type 1 (Homo sapiens, UniProt O43613); assay: (§2) Fluorescence-based cell-based high throughput dose response assay for antagonists of the orexin 1 receptor (OX1R; HCRTR1). [Related pubchem assays (depositor defined):AID434989, AID435008, AID463079, AID485270, AID492963, AID492964, AID492965, AID493232, AID504717, AID504718]; assay type: functional
T6 sequence (O43613 whole entry): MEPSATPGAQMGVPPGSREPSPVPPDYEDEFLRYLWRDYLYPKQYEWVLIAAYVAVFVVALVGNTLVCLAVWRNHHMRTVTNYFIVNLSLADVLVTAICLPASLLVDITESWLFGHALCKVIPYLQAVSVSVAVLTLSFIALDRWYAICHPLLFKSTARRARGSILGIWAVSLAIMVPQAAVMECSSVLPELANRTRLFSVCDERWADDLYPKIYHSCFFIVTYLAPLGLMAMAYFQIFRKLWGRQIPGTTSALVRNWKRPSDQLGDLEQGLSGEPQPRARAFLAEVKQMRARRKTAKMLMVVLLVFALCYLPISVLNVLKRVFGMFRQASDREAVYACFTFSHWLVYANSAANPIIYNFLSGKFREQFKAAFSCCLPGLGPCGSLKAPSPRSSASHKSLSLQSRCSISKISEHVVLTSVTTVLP

[15] = target: T7, Orexin receptor type 2 (Homo sapiens, UniProt O43614); assay: Counterscreen assay for antagonists of the orexin 1 receptor (OX1R; HCRTR1): Homogeneous Time Resolved Fluorescence (HTRF)-based cell-based dose response assay for antagonists of the orexin 2 receptor (OX2R; HCRTR2), run by assay provider.; assay type: functional
T7 sequence (O43614 whole entry): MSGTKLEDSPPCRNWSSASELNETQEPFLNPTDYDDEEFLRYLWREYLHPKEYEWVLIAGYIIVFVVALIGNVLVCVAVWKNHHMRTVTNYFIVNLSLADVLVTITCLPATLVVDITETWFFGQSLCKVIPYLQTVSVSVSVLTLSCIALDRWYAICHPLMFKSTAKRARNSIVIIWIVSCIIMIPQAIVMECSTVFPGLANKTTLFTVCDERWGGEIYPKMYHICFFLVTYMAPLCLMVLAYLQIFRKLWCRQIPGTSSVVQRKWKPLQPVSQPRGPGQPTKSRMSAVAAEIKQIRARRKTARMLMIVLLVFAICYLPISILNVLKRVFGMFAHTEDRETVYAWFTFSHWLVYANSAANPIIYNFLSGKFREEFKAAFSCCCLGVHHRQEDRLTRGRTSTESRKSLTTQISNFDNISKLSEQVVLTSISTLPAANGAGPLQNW

[16] = target: T6, Orexin/Hypocretin receptor type 1; assay: as §2, with “Homogeneous Time Resolved Fluorescence (HTRF)-based” for “Fluorescence-based”; assay type: functional
[17] = target: T7, Orexin receptor type 2; assay: Counterscreen assay for antagonists of the orexin 1 receptor (OX1R; HCRTR1): Fluorescence-based cell-based dose response assay for antagonists of the orexin 2 receptor (OX2R; HCRTR2), run by assay provider.; assay type: functional
[18] = target: Sphingosine 1-phosphate receptor 3 (Homo sapiens, UniProt Q99500); assay: Dose response cell-based high throughput screening assay for antagonists of the Sphingosine 1-Phosphate Receptor 3 (S1P3). [Related pubchem assays: 1429, 485 ]; assay type: functional
Sphingosine 1-phosphate receptor 3, sequence (Q99500 whole entry): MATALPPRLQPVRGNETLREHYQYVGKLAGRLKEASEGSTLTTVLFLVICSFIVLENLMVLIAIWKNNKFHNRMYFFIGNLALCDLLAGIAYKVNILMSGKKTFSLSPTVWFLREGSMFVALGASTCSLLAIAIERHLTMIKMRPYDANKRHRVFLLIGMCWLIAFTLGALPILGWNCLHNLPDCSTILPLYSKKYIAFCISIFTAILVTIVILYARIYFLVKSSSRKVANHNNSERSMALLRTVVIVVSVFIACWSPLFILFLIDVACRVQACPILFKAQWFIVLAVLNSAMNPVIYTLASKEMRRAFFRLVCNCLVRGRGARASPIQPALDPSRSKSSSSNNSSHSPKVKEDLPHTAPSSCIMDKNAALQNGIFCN

[19] = target: 5-hydroxytryptamine receptor 1E (Homo sapiens, UniProt P28566); assay: Counterscreen assay for S1P3 antagonists: Dose response cell-based high throughput screening assay to identify antagonists of the 5-Hydroxytryptamine Receptor Subtype 1E (5HT1E). [Related pubchem assays: 1429, 485 ]; assay type: functional
[20] = target: Sphingosine 1-phosphate receptor 2 (Homo sapiens, UniProt O95136); assay: Dose Response Cell Based Assay for Agonists of the S1P2 Receptor. [Related pubchem assays: 729, 736, 843 ]; assay type: functional
[21] = target: Cytochrome P450 2C19 (Homo sapiens, UniProt P33261); assay: qHTS Assay for Inhibitors and Substrates of Cytochrome P450 2C19. [Related pubchem assays: 410 ]; assay type: ADME; details: read-out: Potency
[22] = target: Ubiquitin carboxyl-terminal hydrolase BAP1 (Homo sapiens, UniProt Q92560); assay: BAP1 deubiquitinase inhibitors, dose response, biochemical (AID 714); assay type: functional
[23] = target: Aryl hydrocarbon receptor (Homo sapiens, UniProt P35869); assay: Luminescence-based cell-based high throughput dose response assay for activators of the Aryl Hydrocarbon Receptor (AHR). [Related pubchem assays: 2796 (Primary screen (AHR activators in singlicate)), 2845 (Confirmation screen (AHR activators in triplicate)), 434939 (Counterscreen (PXR activators in triplicate)), 2804 (Summary (AHR activators))]; assay type: ADME
[24] = target: NADPH oxidase 1 (Homo sapiens, UniProt Q9Y5S8); assay type: functional, cell-based;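 also: Cell-based assay with luminescence read-out, IC50 derived from inhibitor dose-response curves; intracellular ROS from endogenous NOX1 in intact HT29 colon cancer cells; potency of inhibitors that lower the ROS luminescence signal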
[25] = target: Peroxisome proliferator-activated receptor gamma/Nuclear receptor corepressor 2 (Homo sapiens, UniProt P37231+Q9Y618); assay: Counterscreen for NR2E3 inverse agonists: TR-FRET-based biochemical high throughput dose response assay to identify inverse agonists of the interaction between peroxisome proliferator-activated receptor gamma (PPARg) and nuclear receptor co-repressor 2 (NCOR2).; assay type: functional
Peroxisome proliferator-activated receptor gamma/Nuclear receptor corepressor 2, sequence (P37231 whole entry): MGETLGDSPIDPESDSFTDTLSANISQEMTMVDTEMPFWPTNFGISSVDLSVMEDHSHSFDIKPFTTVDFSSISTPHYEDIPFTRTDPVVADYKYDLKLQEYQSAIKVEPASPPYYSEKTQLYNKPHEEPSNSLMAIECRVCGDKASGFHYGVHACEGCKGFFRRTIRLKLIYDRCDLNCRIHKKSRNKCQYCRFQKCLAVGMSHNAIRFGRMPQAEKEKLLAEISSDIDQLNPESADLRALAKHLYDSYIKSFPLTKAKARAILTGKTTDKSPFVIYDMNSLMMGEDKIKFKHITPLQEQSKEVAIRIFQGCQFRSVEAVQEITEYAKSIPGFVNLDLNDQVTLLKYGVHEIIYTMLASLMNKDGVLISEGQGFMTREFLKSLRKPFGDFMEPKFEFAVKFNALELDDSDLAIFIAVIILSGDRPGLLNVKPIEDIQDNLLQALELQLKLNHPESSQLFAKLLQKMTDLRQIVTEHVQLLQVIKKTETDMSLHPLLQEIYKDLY
Peroxisome proliferator-activated receptor gamma/Nuclear receptor corepressor 2, sequence (Q9Y618 whole entry): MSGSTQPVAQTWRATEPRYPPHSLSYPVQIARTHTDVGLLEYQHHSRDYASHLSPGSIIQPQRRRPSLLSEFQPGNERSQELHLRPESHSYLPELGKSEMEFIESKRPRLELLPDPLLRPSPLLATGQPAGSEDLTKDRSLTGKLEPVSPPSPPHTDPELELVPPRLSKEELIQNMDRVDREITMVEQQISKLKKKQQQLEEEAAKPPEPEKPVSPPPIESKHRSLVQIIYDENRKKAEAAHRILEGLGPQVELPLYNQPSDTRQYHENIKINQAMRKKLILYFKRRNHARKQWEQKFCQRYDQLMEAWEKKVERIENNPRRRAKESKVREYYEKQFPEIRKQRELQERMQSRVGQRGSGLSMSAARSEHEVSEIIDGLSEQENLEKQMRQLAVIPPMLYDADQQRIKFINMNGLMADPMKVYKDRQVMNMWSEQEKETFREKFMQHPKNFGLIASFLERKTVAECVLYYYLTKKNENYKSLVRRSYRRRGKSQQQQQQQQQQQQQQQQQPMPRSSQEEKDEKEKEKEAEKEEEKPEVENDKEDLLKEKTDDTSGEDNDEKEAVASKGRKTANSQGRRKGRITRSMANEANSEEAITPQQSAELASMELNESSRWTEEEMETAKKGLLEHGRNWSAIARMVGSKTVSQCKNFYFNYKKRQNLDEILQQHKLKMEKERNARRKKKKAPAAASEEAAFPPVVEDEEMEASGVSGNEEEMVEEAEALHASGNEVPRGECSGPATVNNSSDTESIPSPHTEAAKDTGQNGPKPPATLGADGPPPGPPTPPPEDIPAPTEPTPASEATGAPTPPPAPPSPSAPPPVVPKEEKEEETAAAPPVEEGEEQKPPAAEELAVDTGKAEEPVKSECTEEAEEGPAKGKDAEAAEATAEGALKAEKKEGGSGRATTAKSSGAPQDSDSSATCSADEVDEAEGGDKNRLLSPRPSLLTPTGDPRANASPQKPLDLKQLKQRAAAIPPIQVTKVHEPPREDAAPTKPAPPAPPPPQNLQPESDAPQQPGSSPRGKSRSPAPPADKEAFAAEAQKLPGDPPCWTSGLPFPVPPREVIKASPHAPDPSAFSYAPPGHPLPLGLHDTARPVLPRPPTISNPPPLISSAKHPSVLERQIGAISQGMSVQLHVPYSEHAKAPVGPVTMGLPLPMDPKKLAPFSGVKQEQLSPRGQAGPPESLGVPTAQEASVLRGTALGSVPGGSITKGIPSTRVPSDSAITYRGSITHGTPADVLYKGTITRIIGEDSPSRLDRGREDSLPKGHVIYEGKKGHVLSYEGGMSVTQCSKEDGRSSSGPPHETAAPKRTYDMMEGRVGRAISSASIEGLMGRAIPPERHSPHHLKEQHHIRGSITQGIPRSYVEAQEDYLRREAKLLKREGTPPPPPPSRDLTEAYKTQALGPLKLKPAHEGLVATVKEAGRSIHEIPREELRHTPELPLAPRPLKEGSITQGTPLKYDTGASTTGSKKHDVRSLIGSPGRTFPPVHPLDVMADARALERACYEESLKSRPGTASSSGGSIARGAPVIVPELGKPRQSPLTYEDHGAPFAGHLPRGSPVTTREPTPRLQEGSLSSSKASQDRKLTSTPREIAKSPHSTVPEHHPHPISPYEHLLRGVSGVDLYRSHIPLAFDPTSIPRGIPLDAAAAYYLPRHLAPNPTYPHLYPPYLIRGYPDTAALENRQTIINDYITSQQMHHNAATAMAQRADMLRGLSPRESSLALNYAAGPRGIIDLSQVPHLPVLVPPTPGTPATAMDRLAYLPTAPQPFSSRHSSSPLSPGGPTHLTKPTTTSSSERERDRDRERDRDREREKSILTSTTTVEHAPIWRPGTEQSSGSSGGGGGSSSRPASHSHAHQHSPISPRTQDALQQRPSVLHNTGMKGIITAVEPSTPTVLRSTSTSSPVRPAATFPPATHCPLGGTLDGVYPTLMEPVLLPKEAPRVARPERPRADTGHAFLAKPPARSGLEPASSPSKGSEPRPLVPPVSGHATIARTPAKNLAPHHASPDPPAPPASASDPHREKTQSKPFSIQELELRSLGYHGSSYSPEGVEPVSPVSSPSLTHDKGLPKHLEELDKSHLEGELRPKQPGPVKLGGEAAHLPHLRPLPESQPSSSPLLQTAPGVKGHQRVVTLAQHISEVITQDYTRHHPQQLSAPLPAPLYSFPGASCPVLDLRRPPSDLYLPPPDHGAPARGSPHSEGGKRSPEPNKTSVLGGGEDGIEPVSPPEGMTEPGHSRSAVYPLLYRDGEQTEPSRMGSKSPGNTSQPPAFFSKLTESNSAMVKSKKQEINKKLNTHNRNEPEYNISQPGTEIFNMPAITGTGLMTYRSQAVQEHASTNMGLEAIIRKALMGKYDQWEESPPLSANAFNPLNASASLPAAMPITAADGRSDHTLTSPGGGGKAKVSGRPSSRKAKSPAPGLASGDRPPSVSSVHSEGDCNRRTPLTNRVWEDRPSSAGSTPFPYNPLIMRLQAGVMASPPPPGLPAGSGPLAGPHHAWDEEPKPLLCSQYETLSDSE

[26] = target: Photoreceptor-specific nuclear receptor (Homo sapiens, UniProt Q9Y5X4); assay: NR2E3 inverse agonists, dose response, biochemical, TR-FRET (AID 463256); assay type: functional

## O=C1C(Cl)=C(NCc2ccccc2)C(=O)N1c1ccc(Cl)c(Cl)c1
[1]
  IC50: 73.7 µM (active)
[2]
  IC50: > 100 µM (not active)
[3]
  IC50: > 100 µM (not active)

## CCCOc1cc(C)c(Cl)cc1S(=O)(=O)N(CC)CC
[4]
  EC50: 4.72 µM (active)
[5]
  EC50: > 29.9 µM (not active)
[6]
  EC50: > 29.9 µM (not active)
[7]
  EC50: 1.6 µM (active)

## [O-]/[N+](=C\c1ccc(OC(F)F)cc1)c1ccccc1
[8]
  IC50: > 100 µM (not active)
[9]
  EC50: > 260 µM (inactive)

## CC(NC(=O)c1ccc(Br)cc1Br)c1ccccc1 (stereo unspecified)
[10]
  EC50: > 120 µM (not active)

## N#C/C(=C1\CCCN1)c1nc(-c2ccccc2)cs1
[11]
  IC50: > 49.8 µM (inactive)
[12]
  IC50: > 100 µM (active)
[13]
  IC50: > 66.2 µM (inactive)
[14]
  IC50: 7.67 µM (active)
[15]
  IC50: > 50 µM (inactive)
[16]
  IC50: 2.44 µM (active)
[17]
  IC50: > 88.8 µM (inactive)

## O=C(CSc1nnc(-c2ccc(Br)o2)n1Cc1ccccc1)c1ccccc1F
[18]
  IC50: > 50 µM (not active)
[19]
  IC50: > 50 µM (not active)

## Oc1nc(-c2cccs2)nc2ccccc12
[20]
  EC50: > 50 µM (not active)

## CC(C)C[C@@H](CC(=O)N[C@H](CC(=O)N[C@@H]1CCNC[C@H]1C(=O)N[C@H](CC(=O)N[C@@H](CCC(=O)O)CC(=O)O)Cc1ccccc1)C(C)C)NC(=O)[C@@H]1CCCC[C@H]1N
[21]
  AC50: 39.8 µM (inconclusive)

## Cc1sc(NC(=O)CSc2nnc(C)c(=O)[nH]2)c(C#N)c1C
[22]
  IC50: > 50 µM (not active)

## CCOc1ccc(-c2cc(C)n3nc(C(N)=O)cc3n2)cc1
[23]
  EC50: 2.63 µM (active)

## COc1ccc2c(Cl)c(C(=O)Oc3ccccc3Cl)sc2c1
[24]
  IC50: > 17 µM (not active)

## Cc1cc(=O)oc2cc(OCC(=O)NCCc3c[nH]c4ccc(F)cc34)ccc12
[25]
  IC50: 8.78 µM (active)
[26]
  IC50: 6.11 µM (active)
